Measurements reported in article PMC8238522 (Biochemical Journal, 2021).

Columns and labels:
Assay in all cases: spectrophotometric NADH formation at […] nm, Hill fit
Format in all cases: biochemical
OsPGDH1 = target: T1, OsPGDH1 (Oryza sativa, UniProt B7F6I8)
T1 sequence (B7F6I8 68-613): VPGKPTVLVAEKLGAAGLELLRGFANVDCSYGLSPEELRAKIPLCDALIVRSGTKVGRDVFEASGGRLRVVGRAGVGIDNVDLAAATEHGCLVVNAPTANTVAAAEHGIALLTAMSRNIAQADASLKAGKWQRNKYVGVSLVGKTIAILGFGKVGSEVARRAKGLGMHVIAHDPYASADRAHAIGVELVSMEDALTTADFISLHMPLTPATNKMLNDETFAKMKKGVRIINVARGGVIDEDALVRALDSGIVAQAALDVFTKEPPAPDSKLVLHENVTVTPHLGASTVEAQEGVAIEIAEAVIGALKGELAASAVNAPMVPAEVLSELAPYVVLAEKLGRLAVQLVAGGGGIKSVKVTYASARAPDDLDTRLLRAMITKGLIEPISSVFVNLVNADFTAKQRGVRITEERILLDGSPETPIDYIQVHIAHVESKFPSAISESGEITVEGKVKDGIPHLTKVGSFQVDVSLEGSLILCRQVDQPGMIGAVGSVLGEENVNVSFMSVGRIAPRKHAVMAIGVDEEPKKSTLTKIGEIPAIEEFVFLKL

AmtriPGDH1 = target: T2, AmtriPGDH1 (Amborella trichopoda, UniProt U5D351)
T2 sequence (U5D351 73-618): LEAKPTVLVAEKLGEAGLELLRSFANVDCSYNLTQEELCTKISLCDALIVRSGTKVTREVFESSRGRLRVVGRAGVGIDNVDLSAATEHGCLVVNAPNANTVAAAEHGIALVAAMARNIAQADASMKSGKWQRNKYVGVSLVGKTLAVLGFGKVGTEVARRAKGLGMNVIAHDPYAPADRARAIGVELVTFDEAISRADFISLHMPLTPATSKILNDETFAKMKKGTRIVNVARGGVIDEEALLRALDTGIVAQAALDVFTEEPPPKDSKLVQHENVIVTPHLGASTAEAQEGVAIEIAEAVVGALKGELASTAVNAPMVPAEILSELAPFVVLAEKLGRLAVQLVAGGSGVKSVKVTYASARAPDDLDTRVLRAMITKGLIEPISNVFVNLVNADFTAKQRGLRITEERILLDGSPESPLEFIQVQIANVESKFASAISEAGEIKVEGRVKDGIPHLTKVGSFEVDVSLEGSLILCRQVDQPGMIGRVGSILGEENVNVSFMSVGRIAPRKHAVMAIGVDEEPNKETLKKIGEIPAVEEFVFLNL

OsPGDH2 = target: T3, OsPGDH2 (Oryza sativa, UniProt B7FAD2)
T3 sequence (B7FAD2 64-621): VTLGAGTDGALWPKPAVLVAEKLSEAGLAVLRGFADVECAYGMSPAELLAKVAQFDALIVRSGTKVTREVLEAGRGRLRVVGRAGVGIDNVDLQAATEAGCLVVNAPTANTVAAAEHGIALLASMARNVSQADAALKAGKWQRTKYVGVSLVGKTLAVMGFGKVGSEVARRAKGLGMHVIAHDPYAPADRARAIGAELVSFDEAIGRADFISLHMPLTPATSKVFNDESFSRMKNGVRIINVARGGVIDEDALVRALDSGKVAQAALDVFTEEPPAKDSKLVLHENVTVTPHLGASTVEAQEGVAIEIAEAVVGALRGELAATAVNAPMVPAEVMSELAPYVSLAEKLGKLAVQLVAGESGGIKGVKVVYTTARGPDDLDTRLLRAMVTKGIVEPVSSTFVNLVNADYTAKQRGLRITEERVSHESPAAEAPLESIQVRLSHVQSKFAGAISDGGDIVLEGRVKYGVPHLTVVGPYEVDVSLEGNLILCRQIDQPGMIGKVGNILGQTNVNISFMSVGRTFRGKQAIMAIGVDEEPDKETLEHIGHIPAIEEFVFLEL

| EC50 (OsPGDH1) | EC50 (AmtriPGDH1) | EC50 (OsPGDH2) | SMILES |
| --- | --- | --- | --- |
| 640 ± 30 µM | 750 ± 50 µM |  | CSCC[C@H](N)C(=O)O [L-Methionine] |
| 6400 ± 600 µM | 1200 ± 100 µM |  | N[C@@H](CO)C(=O)O [L-Serine] |
| 33 ± 3 µM | 20 ± 2 µM |  | N[C@@H](CCS)C(=O)O [L-Homocysteine] |
|  |  | 950 ± 40 µM | C[C@H](N)C(=O)O [L-Alanine] |
